Assay [1] has as its target T1, aromatase (microsomes from the human placenta) (Homo sapiens, UniProt P11511).
T1 construct: using microsomes from the human placenta as source of the enzyme; from tissue; host or cells: human placenta microsomes
T1 sequence (P11511 1-503): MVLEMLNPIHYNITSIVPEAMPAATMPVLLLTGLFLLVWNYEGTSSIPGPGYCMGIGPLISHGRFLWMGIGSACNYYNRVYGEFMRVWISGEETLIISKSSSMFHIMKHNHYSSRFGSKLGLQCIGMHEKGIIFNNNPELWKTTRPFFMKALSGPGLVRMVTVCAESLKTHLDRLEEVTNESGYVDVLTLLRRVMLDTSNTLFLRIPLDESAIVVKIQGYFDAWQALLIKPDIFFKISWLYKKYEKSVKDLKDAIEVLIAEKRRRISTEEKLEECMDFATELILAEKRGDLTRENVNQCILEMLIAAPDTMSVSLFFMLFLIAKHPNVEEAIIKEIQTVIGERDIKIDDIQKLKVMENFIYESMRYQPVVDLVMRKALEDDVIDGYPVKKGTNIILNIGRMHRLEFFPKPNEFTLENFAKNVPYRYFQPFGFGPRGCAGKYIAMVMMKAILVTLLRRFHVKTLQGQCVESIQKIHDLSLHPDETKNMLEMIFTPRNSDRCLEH
Put plainly: Aromatase inhibition in vitro, tritiated water method, human placenta microsomes. In kind it is biochemical.

A further assay concerns the target aromatase (e) (UniProt O46512). It counts as biochemical. The note with it: value marked (e); read-out: Activity In vitro IC50(nM), (e).
Assay [2] relates to uterine hypertrophy induced by androstenedione. Put plainly: Activity in vivo: inhibition of uterine hypertrophy induced by androstenedione. Also noted: species or system rat (Sprague-Dawley). The settings on record: Rattus norvegicus, 96 h, immature female rats, androstenedione 30 mg/kg for 4 days, read-out: % inhibition to doses (μg/Kg); for inhibition in vivo at 0.01 mg/kg: dose 10 μg/Kg; for inhibition in vivo at 0.1 mg/kg: dose 100 μg/Kg; for inhibition in vivo at 1 mg/kg: dose 1000 μg/Kg; for inhibition in vivo at 0.001 mg/kg: dose 1 μg/Kg; for inhibition in vivo at 0.003 mg/kg: dose 3 μg/Kg. The method, then:
The activity in vivo of aromatase inhibition by compounds of formula (I) according to the invention has been tested according to the model established by Bharnagar et al. (1990).
In general, immature female rats of the Sprague-Dawley line of a weight ranging from 40 to 50 g have been treated with a dose of androstenedione at 30 mg/kg for 4 days, in the absence or in the presence of doses of various compounds of formula (I).
Four hours after administration of an aromatase inhibitor, the rats were sacrificed. Their uteruses were removed, cleared of adhering fat and conjunctive tissue, next the uteruses were weighed (wet weight). The dry weight of the uteruses was determined the following day after a step of drying for one night at 80° C.

The mark [3] stands for this setting: value marked (h), read-out: Activity In vitro IC50(nM), (h).
Setting [4] is: value without (h)/(e) mark, read-out: Activity In vitro IC50.

From patent publication US20070054899A1 (priority 2003, published 2007) come the findings set out here.

Where two headings read alike, the source gives them in different places. Where only a bound is given, the exact number is not on record here.

aromatase (e), sequence (O46512 whole entry): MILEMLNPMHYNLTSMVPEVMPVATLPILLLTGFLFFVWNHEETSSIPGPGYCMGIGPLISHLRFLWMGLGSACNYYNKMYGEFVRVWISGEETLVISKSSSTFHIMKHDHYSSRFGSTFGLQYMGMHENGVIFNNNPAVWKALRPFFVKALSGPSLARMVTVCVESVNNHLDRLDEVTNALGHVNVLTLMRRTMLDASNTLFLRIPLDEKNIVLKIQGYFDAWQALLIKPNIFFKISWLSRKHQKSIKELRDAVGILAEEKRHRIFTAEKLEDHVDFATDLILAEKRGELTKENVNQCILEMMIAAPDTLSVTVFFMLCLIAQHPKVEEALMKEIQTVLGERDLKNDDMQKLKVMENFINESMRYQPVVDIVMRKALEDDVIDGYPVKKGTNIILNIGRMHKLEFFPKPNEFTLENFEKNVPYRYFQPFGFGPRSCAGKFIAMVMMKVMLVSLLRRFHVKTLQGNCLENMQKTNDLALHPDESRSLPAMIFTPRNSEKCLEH

In the case of `Cn1c(=O)oc2cc(C(c3ccccc3)n3cnnc3)ccc21` (centres unmarked), the IC50 (in general, the midpoint of a concentration-inhibition curve) in assay [1] (setting [3]) is more than 3000 nM.

On to “5-[(4-Cyanophenyl)(1H-1,2,4-triazol-1-yl)methyl]-6-methoxy-1,3-benzoxazol-2(3H)-one [GCA37]”, for which the IC50 in assay [1] (setting [4]) is 328 nM.

Turning to `Cn1c(=O)sc2cc(C(c3ccccc3)n3ccnc3)ccc21` (racemic) [(+/−)PCH28, 6-[1H-Imidazol-1-yl(phenyl)methyl]-3-methyl-1,3-benzothiazol-2(3H)-one], the IC50 on aromatase (e) amounted to 23.4 nM. In assay [2], the inhibition in vivo at 0.01 mg/kg was determined as 13%, the inhibition in vivo at 0.1 mg/kg was found to be 25% and the inhibition in vivo at 1 mg/kg turned out to be 75%.

For the molecule `Cn1c(=O)sc2cc(C(c3ccccc3)n3ccnc3)ccc21` (racemic) [(E1)PCH28], at aromatase (e), the IC50 is 24.9 nM.

Turning to `Cn1c(=O)sc2cc(C(c3ccccc3)n3ccnc3)ccc21` (racemic) [(E2) PCH28], the IC50 at aromatase (e) worked out at 22.6 nM.

`Cn1c(=O)sc2cc(C(c3ccc(C#N)cc3)n3ccnc3)ccc21` (racemic) [PCH165 (+)CD4]: in assay [1] (setting [4]), the IC50 is 8.81 nM.

For `Cn1c(=O)sc2cc(C(c3ccc(C#N)cc3)n3ccnc3)ccc21` (racemic) [PCH165 (+/−) CD4], in assay [1] (setting [4]), the IC50 turned out to be 4.54 nM. Further, in assay [2], the inhibition in vivo at 0.001 mg/kg was determined as 22%, the inhibition in vivo at 0.01 mg/kg was 23% and the inhibition in vivo at 0.1 mg/kg is 66%.

For `Cn1c(=O)sc2cc(C(c3ccc(C#N)cc3)n3ccnc3)ccc21` (racemic) [PCH165 (−)CD4], in assay [1] (setting [4]), the IC50 turned out to be 4.94 nM.

With `Cn1c(=O)oc2cc(C(c3ccccc3)n3ccnc3)ccc21` (centres unmarked) [AL22, 6-[1H-Imidazol-1-yl(phenyl)methyl]-3-methyl-1,3-benzoxazol-2(3H)-one], the IC50 in assay [1] (setting [3]) was 320 nM; at aromatase (e), 340 nM.

Consider `COc1cc2oc(=O)[nH]c2cc1C(c1ccc(C#N)cc1)n1ccnc1` (centres unmarked) [GCA36], for which, in assay [1] (setting [4]), the IC50 was found to be 19.9 nM.

For the molecule `N#Cc1ccc(C(c2ccc(C#N)cc2)n2cncn2)cc1` [Letrozole, reference compound], in assay [2], the inhibition in vivo at 0.001 mg/kg was 66%, the inhibition in vivo at 0.003 mg/kg was determined as 74% and the inhibition in vivo at 0.01 mg/kg turned out to be 90%. The inhibition in vivo at 0.005 mg/kg in assay [2] (dose 5 μg/Kg) is 91%.

Consider `N#Cc1ccc(C(c2ccc3oc(=O)[nH]c3c2)n2ccnc2)cc1` (centres unmarked) [PC11128], for which, in assay [1] (setting [4]), the IC50 was found to be 5.83 nM. For the same molecule, in assay [2], the inhibition in vivo at 0.001 mg/kg stood at 29%, the inhibition in vivo at 0.01 mg/kg was found to be 29% and the inhibition in vivo at 0.1 mg/kg was determined as 53%.

Regarding `O=c1[nH]c2cc(C(c3ccncc3)n3ccnc3)ccc2o1` (centres unmarked) [PC11129], in assay [1] (setting [4]), the IC50 turned out to be 26.8 nM.

For the molecule `N#Cc1ccc(C(c2ccc3[nH]c(=O)sc3c2)n2ccnc2)cc1` (centres unmarked) [PC11215], in assay [1] (setting [4]), the concentration for half-maximal inhibition (IC50) is 4.04 nM. In assay [2], the inhibition in vivo at 0.001 mg/kg is 0%, the inhibition in vivo at 0.01 mg/kg came to 56% and the inhibition in vivo at 0.1 mg/kg was 90%.

Regarding `O=c1[nH]c2ccc(C(c3ccccc3)n3ccnc3)cc2o1` (centres unmarked) [PCH10, 6-[1H-Imidazol-1-yl(phenyl)methyl]-1,3-benzoxazol-2(3H)-one], the results for the IC50 (in assay [1] (setting [3]); on aromatase (e)) were 84.6 nM and 103 nM, respectively.

In the case of `Cn1c(=O)oc2cc(C(c3ccc(Cl)cc3)n3ccnc3)ccc21` (centres unmarked) [PCH15, 6-[(4-Chlorophenyl)(1H-imidazol-1-yl)methyl]-3-methyl-1,3-benzoxazol-2(3H)-one], the IC50 in assay [1] (setting [3]) was more than 2000 nM.

For the molecule `Cn1c(=O)oc2cc(C(c3ccccc3)n3cncn3)ccc21` (centres unmarked) [PCH20, 3-Methyl-6-[phenyl(1H-1,2,4-triazol-1-yl)methyl]-1,3-benzoxazol-2(3H)-one], the IC50 in assay [1] (setting [3]) was more than 3000 nM.

As to `O=c1[nH]c2cc(C(c3ccccc3)n3cncn3)ccc2s1` (centres unmarked) [PCH132], the IC50 in assay [1] (setting [4]) stood at 178 nM.

On to `Cn1c(=O)sc2ccc(C(c3ccccc3)n3cncn3)cc21` (centres unmarked) [PCH134], for which, in assay [1] (setting [4]), the IC50 is 179 nM.

For `Cn1c(=O)sc2cc(C(c3ccc(C#N)cc3)n3cncn3)ccc21` (centres unmarked) [PCH158], the IC50 in assay [1] (setting [4]) is 8.71 nM. In assay [2], the inhibition in vivo at 0.001 mg/kg is 54% and the inhibition in vivo at 0.01 mg/kg was found to be 56%.

Take `Cn1c(=O)oc2ccc(C(c3ccc(Cl)cc3)n3cncn3)cc21` (centres unmarked) [PCH160, 5-[(4-Chlorophenyl)(1H-1,2,4-triazol-1-yl)methyl]-3-methyl-1,3-benzoxazol-2(3H)-one]: the IC50 in assay [1] (setting [4]) came out at 18.7 nM.

Take `Cn1c(=O)oc2ccc(C(c3ccccc3)n3cncn3)cc21` (centres unmarked) [PCH183, 3-Methyl-5-[1H-1,2,4-triazol-1-yl(phenyl)methyl]-1,3-benzoxazol-2(3H)-one]: the IC50 in assay [1] (setting [4]) is 1810 nM.

Take `O=c1[nH]c2cc(C(c3ccc(Cl)cc3)n3cncn3)ccc2o1` (centres unmarked) [PCH195]: in assay [1] (setting [4]), the IC50 was 17.1 nM.

With `Cn1c(=O)oc2ccc(C(c3ccc(Cl)cc3)n3cncn3)cc21` (centres unmarked) [PCH196], in assay [1] (setting [4]), the IC50 was 24.9 nM.

Turning to `O=C1COc2cc(C(c3ccccc3)n3ccnc3)ccc2N1` (centres unmarked) [PCH211], the IC50 in assay [1] (setting [4]) turned out to be 74.4 nM.

For `CN1C(=O)COc2ccc(C(c3ccccc3)n3ccnc3)cc21` (centres unmarked) [PCH213], the IC50 in assay [1] (setting [4]) came out at 5.64 nM. For the same molecule, in assay [2], the inhibition in vivo at 0.001 mg/kg stood at 0%, the inhibition in vivo at 0.01 mg/kg was 3% and the inhibition in vivo at 0.1 mg/kg stood at 5%.

Take `O=C1COc2ccc(C(c3ccccc3)n3ccnc3)cc2N1` (centres unmarked) [PCH218]: in assay [1] (setting [4]), the half-maximal inhibitory concentration (IC50) is 65.5 nM.

As to `CN1C(=O)COc2ccc(C(c3ccc(C#N)cc3)n3ccnc3)cc21` (centres unmarked) [PCH222], the IC50 in assay [1] (setting [4]) was 3.44 nM. For the same molecule, in assay [2], the inhibition in vivo at 0.001 mg/kg amounted to 0%, the inhibition in vivo at 0.003 mg/kg is 22% and the inhibition in vivo at 0.01 mg/kg was 32%.

Take `CN1C(=O)COc2ccc(C(c3ccc(C#N)cc3)n3cncn3)cc21` (centres unmarked) [PCH223]: in assay [2], the inhibition in vivo at 0.001 mg/kg was 4%, the inhibition in vivo at 0.01 mg/kg stood at 22% and the inhibition in vivo at 0.1 mg/kg was 66%.

Regarding `N#Cc1ccc(C(c2ccc3c(c2)NC(=O)CO3)n2ccnc2)cc1` (centres unmarked) [PCH225], the IC50 in assay [1] (setting [4]) worked out at 9.9 nM.

With `O=C1CSc2cc(C(c3ccccc3)n3ccnc3)ccc2N1` (centres unmarked) [PCH227, 7-[1H-Imidazol-1-yl(phenyl)methyl]-1,4-benzothiazin-3(4H)-one], the IC50 in assay [1] (setting [4]) was found to be 55.1 nM.

As to `N#Cc1ccc(C(c2ccc3c(c2)SCC(=O)N3)n2ccnc2)cc1` (centres unmarked) [PCH229], in assay [1] (setting [4]), the IC50 came to 13.8 nM. Moreover, in assay [2], the inhibition in vivo at 0.01 mg/kg stood at 11%, the inhibition in vivo at 0.1 mg/kg is 42% and the inhibition in vivo at 1 mg/kg was determined as 83%.

As for `N#Cc1ccc(C(c2ccc3c(c2)SCC(=O)N3)n2cncn2)cc1` (centres unmarked) [PCH230], the IC50 in assay [1] (setting [4]) worked out at 34.8 nM. In addition, in assay [2], the inhibition in vivo at 0.01 mg/kg is 2%, the inhibition in vivo at 0.1 mg/kg worked out at 22% and the inhibition in vivo at 1 mg/kg came out at 74%.

Consider `CN1C(=O)CSc2cc(C(c3ccc(C#N)cc3)n3cncn3)ccc21` (centres unmarked) [PCH231], for which the IC50 in assay [1] (setting [4]) came out at 56.6 nM.

Regarding `CN1C(=O)CSc2cc(C(c3ccc(C#N)cc3)n3ccnc3)ccc21` (centres unmarked) [PCH240], the IC50 in assay [1] (setting [4]) stood at 5.38 nM.

In the case of `CCn1c(=O)sc2cc(C(c3ccc(C#N)cc3)n3ccnc3)ccc21` (centres unmarked) [PCH241], the IC50 in assay [1] (setting [4]) is 4.29 nM. Also, in assay [2], the inhibition in vivo at 0.001 mg/kg stood at 18%, the inhibition in vivo at 0.003 mg/kg is 37% and the inhibition in vivo at 0.01 mg/kg is 16%.

In the case of `CCn1c(=O)sc2cc(C(c3ccc([N+](=O)[O-])cc3)n3cncn3)ccc21` (centres unmarked) [PCH243, 3-Ethyl-6-[(4-nitrophenyl)(1H-1,2,4-triazol-1-yl)methyl]-1,3-benzothiazol-2(3H)-one], in assay [1] (setting [4]), the IC50 stood at 3.99 nM.

Take `Cn1c(=O)sc2cc(C(c3ccc(C#N)cc3)n3cnnn3)ccc21` (centres unmarked) [PCH248]: the IC50 in assay [1] (setting [4]) came out at 11.8 nM.

Regarding `Cn1c(=O)sc2cc(C(c3cccc(C#N)c3)n3cncn3)ccc21` (centres unmarked) [PCH258], the 50% inhibitory concentration (IC50) in assay [1] (setting [4]) amounted to 31.7 nM.

As for `Cn1c(=O)sc2cc(C(c3ccc([N+](=O)[O-])cc3)n3cncn3)ccc21` (centres unmarked) [PCH259], the IC50 in assay [1] (setting [4]) was found to be 3.05 nM. In assay [2], the inhibition in vivo at 0.001 mg/kg stood at 31%, the inhibition in vivo at 0.01 mg/kg was found to be 63% and the inhibition in vivo at 0.1 mg/kg was 88%.

Take `CCn1c(=O)sc2cc(C(c3ccc(C#N)cc3)n3cncn3)ccc21` (centres unmarked) [PCH260]: the 50% inhibitory concentration (IC50) in assay [1] (setting [4]) is 4.49 nM. In assay [2], the inhibition in vivo at 0.001 mg/kg was determined as 32%, the inhibition in vivo at 0.01 mg/kg is 50% and the inhibition in vivo at 0.1 mg/kg was 90%.
